Data: patent publication US10183014B2, “Ocular formulations for drug-delivery and protection of the anterior segment of the eye” (PanOptica, Inc., priority 2014, dated 2019)
Several values for one entry are separate records, joined by “and”; a condition that tells them apart may be missing. Equal entries are not always repeated.

Assays:
MINK1 = MINK1 (Homo sapiens, UniProt Q8N4C8); assay: In vitro inhibition of tyrosine kinases; format: biochemical; details: read-out: Mean % Inhibition at 1 μM Compound-I; 1 μM (568.9 ng/mL)
MAP4K5 (KHS1) = MAP4K5 (KHS1) (Homo sapiens, UniProt Q9Y4K4); assay: In vitro inhibition of tyrosine kinases; format: biochemical; details: read-out: Mean % Inhibition at 1 μM Compound-I; 1 μM (568.9 ng/mL)
ABL1 Y253F = ABL1 Y253F (Homo sapiens, UniProt P00519, Y253F); assay: In vitro inhibition of tyrosine kinases; format: biochemical; details: read-out: Mean % Inhibition at 1 μM Compound-I; 1 μM (568.9 ng/mL)
pathologic angiogenesis = assay: Pathologic angiogenesis, murine cornea model, systemic administration; format: in vivo
[1] = tested on: retinal and choroidal neovascularization; assay: Pathologic retinal and choroidal neovascularization, rodent models, topical ocular delivery; format: in vivo
LYN A = LYN A (Homo sapiens, UniProt P07948); assay: In vitro inhibition of tyrosine kinases; format: biochemical; details: read-out: Mean % Inhibition at 1 μM Compound-I; 1 μM (568.9 ng/mL)
LYN A, sequence (P07948 whole entry, species assumed): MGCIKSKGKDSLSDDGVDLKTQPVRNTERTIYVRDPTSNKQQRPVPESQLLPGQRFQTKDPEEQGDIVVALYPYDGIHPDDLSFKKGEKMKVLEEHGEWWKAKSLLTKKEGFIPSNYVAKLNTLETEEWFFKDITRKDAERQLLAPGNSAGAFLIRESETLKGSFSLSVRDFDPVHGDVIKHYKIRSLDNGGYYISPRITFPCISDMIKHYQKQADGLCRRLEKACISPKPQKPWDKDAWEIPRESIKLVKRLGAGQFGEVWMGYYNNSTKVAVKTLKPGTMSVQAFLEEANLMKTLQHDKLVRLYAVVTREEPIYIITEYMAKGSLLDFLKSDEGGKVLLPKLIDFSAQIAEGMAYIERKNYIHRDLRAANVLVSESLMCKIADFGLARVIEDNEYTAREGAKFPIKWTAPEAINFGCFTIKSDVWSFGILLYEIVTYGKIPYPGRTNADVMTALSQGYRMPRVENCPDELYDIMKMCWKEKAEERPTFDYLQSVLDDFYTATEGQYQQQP

[2] = Concentrations of Compound-I in ocular fluids and tissues, 0.4% cyclodextrin solutions, 24-day study; format: in vivo, Dutch-Belted rabbits; details: 0.4% cyclodextrin-based solutions, twice daily, day 24, 1 hour after first daily dose; for concentration at 1 h: Dutch-Belted, rabbit, topical, 0.4 % (4 mg/mL)
Description: The ocular solution of Compound-I comprising cyclodextrin was prepared and tested in different groups of animals.

HUVECs = assay: Inhibition of VEGF-stimulated mitogenesis in HUVECs; format: cell-based; details: Homo sapiens, HUVEC
EPHB-1 = EPHB-1 (Homo sapiens, UniProt P54762); assay: In vitro inhibition of tyrosine kinases; format: biochemical; details: read-out: Mean % Inhibition at 1 μM Compound-I; 1 μM (568.9 ng/mL)
EPHB-1, sequence (P54762 18-984, species assumed): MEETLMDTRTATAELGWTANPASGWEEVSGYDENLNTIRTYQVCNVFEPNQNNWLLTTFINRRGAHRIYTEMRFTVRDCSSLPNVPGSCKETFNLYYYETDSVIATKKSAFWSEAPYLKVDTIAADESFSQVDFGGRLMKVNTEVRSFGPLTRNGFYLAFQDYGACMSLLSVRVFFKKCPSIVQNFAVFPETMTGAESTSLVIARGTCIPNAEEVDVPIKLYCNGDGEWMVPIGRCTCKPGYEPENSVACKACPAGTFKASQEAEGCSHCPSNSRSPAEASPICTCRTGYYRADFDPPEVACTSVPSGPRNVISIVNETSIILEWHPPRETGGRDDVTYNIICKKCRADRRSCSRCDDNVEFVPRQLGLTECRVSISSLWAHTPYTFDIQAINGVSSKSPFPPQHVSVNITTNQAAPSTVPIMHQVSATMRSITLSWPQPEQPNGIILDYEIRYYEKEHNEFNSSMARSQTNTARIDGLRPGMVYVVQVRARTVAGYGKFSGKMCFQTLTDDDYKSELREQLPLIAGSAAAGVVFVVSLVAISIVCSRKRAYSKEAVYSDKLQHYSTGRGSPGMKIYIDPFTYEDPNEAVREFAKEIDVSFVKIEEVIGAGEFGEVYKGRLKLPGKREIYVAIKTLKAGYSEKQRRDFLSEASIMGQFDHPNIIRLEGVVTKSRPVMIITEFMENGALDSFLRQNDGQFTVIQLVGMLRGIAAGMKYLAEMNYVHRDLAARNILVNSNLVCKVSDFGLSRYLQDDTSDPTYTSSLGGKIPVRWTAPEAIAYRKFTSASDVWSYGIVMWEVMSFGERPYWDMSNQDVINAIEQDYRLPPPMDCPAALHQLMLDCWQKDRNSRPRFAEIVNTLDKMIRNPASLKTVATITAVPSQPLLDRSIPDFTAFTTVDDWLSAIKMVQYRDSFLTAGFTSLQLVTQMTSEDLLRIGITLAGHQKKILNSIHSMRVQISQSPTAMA

EPHB-4 = EPHB-4 (Homo sapiens, UniProt P54760); assay: In vitro inhibition of tyrosine kinases; format: biochemical; details: read-out: Mean % Inhibition at 1 μM Compound-I; 1 μM (568.9 ng/mL)
EPHB-4, sequence (P54760 16-987, species assumed): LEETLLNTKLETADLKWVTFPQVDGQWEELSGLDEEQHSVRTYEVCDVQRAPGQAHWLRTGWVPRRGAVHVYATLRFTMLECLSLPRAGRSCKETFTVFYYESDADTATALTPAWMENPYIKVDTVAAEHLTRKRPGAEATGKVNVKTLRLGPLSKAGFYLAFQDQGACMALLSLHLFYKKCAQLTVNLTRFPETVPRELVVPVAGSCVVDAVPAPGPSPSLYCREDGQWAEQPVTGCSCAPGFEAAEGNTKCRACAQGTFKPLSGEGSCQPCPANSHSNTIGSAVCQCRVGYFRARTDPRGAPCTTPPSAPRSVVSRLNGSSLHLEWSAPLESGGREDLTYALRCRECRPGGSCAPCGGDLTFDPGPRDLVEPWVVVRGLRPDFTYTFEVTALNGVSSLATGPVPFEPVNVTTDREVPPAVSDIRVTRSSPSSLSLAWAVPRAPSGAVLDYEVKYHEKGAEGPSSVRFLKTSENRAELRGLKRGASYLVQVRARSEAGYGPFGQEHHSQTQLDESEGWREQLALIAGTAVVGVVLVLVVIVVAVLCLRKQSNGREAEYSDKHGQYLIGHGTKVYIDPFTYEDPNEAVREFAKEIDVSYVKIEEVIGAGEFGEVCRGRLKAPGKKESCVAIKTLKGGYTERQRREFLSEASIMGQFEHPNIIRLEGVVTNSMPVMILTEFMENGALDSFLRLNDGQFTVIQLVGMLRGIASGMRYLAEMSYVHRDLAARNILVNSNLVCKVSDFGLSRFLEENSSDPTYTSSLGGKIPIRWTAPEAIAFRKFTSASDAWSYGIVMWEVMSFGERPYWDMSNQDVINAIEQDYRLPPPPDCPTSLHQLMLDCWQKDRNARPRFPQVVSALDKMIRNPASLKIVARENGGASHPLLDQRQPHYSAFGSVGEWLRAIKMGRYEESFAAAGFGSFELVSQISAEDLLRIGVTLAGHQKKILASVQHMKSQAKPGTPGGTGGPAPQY

FLT4 (VEGFR-3) = FLT4 (VEGFR-3) (Homo sapiens, UniProt P35916); assay: In vitro inhibition of tyrosine kinases; format: biochemical; details: read-out: Mean % Inhibition at 1 μM Compound-I; 1 μM (568.9 ng/mL)
EPHA-1 = EPHA-1 (Homo sapiens, UniProt P21709); assay: In vitro inhibition of tyrosine kinases; format: biochemical; details: read-out: Mean % Inhibition at 1 μM Compound-I; 1 μM (568.9 ng/mL)
PDGFRA T674I = PDGFRA T674I (Homo sapiens, UniProt P16234, T674I); assay: In vitro inhibition of tyrosine kinases; format: biochemical; details: read-out: Mean % Inhibition at 1 μM Compound-I; 1 μM (568.9 ng/mL)
KDR (VEGFR-2) = KDR (VEGFR-2) (Homo sapiens, UniProt P35968); assay: In vitro inhibition of tyrosine kinases; format: biochemical; details: 300 nM (170.67 ng/mL)
KDR (VEGFR-2), sequence (P35968 20-1356): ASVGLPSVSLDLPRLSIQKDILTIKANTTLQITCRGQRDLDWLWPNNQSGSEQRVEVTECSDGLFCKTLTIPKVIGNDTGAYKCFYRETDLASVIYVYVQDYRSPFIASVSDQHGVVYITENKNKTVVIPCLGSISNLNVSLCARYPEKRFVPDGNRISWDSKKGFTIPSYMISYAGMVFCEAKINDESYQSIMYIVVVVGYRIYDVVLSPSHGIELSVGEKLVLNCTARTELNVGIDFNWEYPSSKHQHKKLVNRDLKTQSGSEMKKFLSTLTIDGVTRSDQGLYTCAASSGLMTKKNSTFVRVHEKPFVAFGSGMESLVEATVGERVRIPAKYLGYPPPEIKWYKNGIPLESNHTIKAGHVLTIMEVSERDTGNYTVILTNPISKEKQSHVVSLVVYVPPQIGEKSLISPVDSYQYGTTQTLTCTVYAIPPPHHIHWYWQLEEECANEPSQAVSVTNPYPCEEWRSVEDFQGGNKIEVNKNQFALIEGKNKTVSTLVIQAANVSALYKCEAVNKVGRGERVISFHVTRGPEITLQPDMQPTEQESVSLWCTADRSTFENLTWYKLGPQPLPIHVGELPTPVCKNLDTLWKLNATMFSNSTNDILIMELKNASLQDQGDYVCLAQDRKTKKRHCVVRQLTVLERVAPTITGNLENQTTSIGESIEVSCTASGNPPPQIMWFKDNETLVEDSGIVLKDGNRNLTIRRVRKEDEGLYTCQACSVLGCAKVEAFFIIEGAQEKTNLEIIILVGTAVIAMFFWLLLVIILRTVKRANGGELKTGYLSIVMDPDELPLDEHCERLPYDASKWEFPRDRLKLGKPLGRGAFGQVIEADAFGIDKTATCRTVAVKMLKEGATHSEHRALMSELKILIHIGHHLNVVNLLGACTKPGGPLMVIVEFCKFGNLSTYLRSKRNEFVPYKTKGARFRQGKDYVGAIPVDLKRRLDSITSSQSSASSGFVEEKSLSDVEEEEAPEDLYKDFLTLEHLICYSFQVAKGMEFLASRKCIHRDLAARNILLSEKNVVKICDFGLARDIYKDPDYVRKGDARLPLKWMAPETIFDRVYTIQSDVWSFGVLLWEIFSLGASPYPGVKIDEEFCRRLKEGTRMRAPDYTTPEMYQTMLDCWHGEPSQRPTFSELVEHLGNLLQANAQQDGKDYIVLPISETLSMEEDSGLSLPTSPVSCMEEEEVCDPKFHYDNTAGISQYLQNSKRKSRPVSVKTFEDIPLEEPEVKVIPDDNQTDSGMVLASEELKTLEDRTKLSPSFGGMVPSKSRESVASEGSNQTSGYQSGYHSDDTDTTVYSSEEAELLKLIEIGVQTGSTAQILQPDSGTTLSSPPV

FGR = FGR (Homo sapiens, UniProt P09769); assay: In vitro inhibition of tyrosine kinases; format: biochemical; details: read-out: Mean % Inhibition at 1 μM Compound-I; 1 μM (568.9 ng/mL)
human tumor xenographs = assay: Growth of human tumor xenographs in athymic mice; format: in vivo; details: systemic administration
[3] = PK with topical ocular Compound-I in sodium phosphate-based Gel Drop; format: in vivo, Dutch-Belted rabbits; details: Dutch-Belted, rabbit, Gel Drop 6 mg/ml, 3x per day, 4 days, 1 hour after last dose
Source text: The Gel Drop of Compound-I was applied to eyes of Dutch-belted rabbits.

[4] = 5-day PK with topical ocular Compound-I in cyclodextrin-based solutions (Example 6); format: in vivo, Dutch-Belted rabbits; details: HPβCD solutions; for concentration at 1 h: q.d. groups (4, 5a, 6a, 7, 8, 11, 12), 4 days, 1 hr after first daily dose day 5
Description: All doses were administered with ±1 hour of the scheduled dose time, except on day 1 for Groups 1, 4, and 10. The first dose on day 1 was administered at 12:00 PM, and the second dose (for Groups 1 and 10) was administered approximately 4 hours after. This was due to delayed arrival of formulations. All other dosing for these groups was as scheduled. On day 1, Groups 4-8, and 11-12 received one dose (q.d.) for four (4) days. On days 1 through 4, Groups 1-3, and 9-10 received b.i.d. dosing approximately 8 hours apart for four (4) days.
Ocular sampling occurred one hour following the first daily dose on day 5 for all groups, except Groups 5b and 6b, where ocular sampling occurred 24 hours after the first daily dose on day 4.
Blood samples for plasma collection were obtained just prior to scheduled euthanasia for all animals. […] Cornea, central retina, and central choroid samples from groups 1-12 were assayed. Aqueous humor, peripheral retina, and peripheral choroid samples were not assayed.

MAP4K4 (HGK) = MAP4K4 (HGK) (Homo sapiens, UniProt O95819); assay: In vitro inhibition of tyrosine kinases; format: biochemical; details: read-out: Mean % Inhibition at 1 μM Compound-I; 1 μM (568.9 ng/mL)
MAP4K4 (HGK), sequence (O95819 whole entry, species assumed): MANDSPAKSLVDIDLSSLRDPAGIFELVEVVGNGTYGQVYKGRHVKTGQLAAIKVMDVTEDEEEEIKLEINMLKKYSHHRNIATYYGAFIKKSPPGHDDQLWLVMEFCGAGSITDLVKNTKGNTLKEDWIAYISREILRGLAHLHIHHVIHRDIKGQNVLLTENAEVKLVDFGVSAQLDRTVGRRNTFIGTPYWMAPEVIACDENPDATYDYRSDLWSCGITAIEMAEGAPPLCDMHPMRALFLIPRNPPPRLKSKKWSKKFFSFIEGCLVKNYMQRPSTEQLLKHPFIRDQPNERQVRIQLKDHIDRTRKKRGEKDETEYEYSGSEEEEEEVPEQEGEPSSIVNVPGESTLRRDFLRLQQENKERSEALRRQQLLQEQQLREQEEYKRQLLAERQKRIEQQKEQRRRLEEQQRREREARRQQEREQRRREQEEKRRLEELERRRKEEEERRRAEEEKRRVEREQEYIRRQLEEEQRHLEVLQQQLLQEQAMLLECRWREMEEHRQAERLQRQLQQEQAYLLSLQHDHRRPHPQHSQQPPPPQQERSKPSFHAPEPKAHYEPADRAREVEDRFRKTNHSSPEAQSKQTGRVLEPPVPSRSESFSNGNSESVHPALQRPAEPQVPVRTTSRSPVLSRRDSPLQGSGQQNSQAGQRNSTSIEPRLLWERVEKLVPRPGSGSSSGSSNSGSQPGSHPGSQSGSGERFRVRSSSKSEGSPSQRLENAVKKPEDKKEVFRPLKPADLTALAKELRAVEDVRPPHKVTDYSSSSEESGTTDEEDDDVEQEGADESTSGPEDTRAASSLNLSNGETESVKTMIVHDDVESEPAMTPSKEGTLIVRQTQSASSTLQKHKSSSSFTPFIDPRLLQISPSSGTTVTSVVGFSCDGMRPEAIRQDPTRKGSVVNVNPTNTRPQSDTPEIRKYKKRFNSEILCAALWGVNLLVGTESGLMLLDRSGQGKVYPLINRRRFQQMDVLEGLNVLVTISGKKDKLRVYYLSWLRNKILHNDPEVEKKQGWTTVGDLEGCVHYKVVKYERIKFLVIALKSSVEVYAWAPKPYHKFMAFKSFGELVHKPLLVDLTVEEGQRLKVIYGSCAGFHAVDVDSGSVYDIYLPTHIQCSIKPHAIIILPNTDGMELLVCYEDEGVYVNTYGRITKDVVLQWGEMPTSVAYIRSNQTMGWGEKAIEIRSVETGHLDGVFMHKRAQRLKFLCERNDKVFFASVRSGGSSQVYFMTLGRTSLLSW

ABL1 E255K = ABL1 E255K (Homo sapiens, UniProt P00519, E255K); assay: In vitro inhibition of tyrosine kinases; format: biochemical; details: read-out: Mean % Inhibition at 1 μM Compound-I; 1 μM (568.9 ng/mL)

Cl.NC(=O)c1c(OCc2c(F)cc(Br)cc2F)nsc1NC(=O)NCCCCN1CCCC1 [Compound-I, 3-[(4-bromo-2,6-difluorophenyl)methoxy]-5-[[[[4-(1-pyrrolidinyl)butyl]amino]carbonyl]amino]-4-isothiazolecarboxamide hydrochloride]
inhibition at 1 µM (MINK1): 100%
inhibition at 1 µM (MAP4K5 (KHS1)): 94%
inhibition at 1 µM (ABL1 Y253F): 93%
Pathologic angiogenesis (pathologic angiogenesis): inhibit
Pathologic retinal and choroidal neovascularization [1]: significant inhibition
inhibition at 1 µM (LYN A): 81%
Corneal concentration, range over solutions [2]: 6.49 to 30 µM
concentration at 1 h ([2]; aqueous humor, read-out: Aqueous humor concentration, range over solutions): 2 to 7 nM
concentration at 1 h ([2]; central retina, read-out: Central retina concentration, range over solutions): 53.1 to 124 nM
IC50 (HUVECs): 14.1 nM and 0.008 µg/mL
inhibition at 1 µM (EPHB-1): 83%
inhibition at 1 µM (EPHB-4): 80%
inhibition at 1 µM (FLT4 (VEGFR-3)): 95%
inhibition at 1 µM (EPHA-1): 81%
inhibition at 1 µM (PDGFRA T674I): 86%
Mean % Inhibition at 300 nM Compound-I (KDR (VEGFR-2)): completely inhibited
inhibition at 1 µM (FGR): 91%
Growth of human tumor xenographs (human tumor xenographs): inhibit
concentration at 1 h ([3]; aqueous humor (AH), read-out: Mean [AH]): 50.9 nM
concentration at 1 h ([3]; plasma, read-out: [plasma]): 12.5 nM
concentration at 24 h ([4]; Dutch-Belted, rabbit, central choroid, topical, 30 μL bilateral, q.d. groups 5b, 6b, 24 hr after first daily dose day 4): 194 nM
concentration at 1 h ([4]; Dutch-Belted, rabbit, central choroid, topical, 30 μL bilateral, read-out: Average Concentration Central Choroid): 203 nM
concentration at 1 h ([4]; Dutch-Belted, rabbit, central retina, topical, 30 μL bilateral, read-out: Average Concentration Central Retina): 48.1 nM
Average Concentration Central Retina ([4]; q.d. groups 5b, 6b, 24 hr after first daily dose day 4): <LLOQ
inhibition at 1 µM (MAP4K4 (HGK)): 100%
inhibition at 1 µM (ABL1 E255K): 90%
